From US20080176225A1, “MEMBRANE BOUND REPORTER GENE SYSTEM” (priority 2007, published 2008)

What was measured:
mβG-eB7 [1] = biological target: T1, mβG-eB7 (Mus musculus, UniProt P12265, G265D/I320V); assay: Biodistribution by optical imaging of whole-body frozen sections after i.v. FDGlcU or fluorescein; format: in vivo; details: 30 minutes after i.v. injection of 500 μg
T1 construct: expressed in transfected cells
T1 sequence (P12265 with tags, fused parts or gaps G265D/I320V): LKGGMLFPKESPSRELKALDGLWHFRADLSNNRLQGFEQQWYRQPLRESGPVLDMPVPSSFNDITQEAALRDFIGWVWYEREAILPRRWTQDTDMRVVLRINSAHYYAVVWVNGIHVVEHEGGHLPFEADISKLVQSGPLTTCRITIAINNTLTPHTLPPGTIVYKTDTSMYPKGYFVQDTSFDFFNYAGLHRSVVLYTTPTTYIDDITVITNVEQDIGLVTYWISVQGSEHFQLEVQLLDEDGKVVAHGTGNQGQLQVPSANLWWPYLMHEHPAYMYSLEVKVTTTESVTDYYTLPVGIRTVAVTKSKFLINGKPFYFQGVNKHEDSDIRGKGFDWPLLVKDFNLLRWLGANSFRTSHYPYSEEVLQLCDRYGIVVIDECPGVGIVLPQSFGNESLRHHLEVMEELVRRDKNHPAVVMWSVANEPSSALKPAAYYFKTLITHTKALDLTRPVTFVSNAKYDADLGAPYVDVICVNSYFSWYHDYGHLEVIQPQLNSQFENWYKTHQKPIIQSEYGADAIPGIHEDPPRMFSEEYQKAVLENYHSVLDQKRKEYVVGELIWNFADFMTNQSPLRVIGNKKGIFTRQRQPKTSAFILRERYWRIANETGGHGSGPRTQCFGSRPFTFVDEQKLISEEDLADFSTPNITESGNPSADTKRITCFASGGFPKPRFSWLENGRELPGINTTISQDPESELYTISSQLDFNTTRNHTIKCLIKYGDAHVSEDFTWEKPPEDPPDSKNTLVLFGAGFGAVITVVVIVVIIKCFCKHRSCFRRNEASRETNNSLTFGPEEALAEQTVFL
Procedure: In vivo biodistribution of fluorescein was measured around 30 minutes after i.v. injection of the substrate, FDGlcU, (left panel) or fluorescein (right panel). The biodistribution of activated FDGlcU was examined by killing tumor-bearing mice 30 minutes after they received an injection of FDGlcU or fluorescein and then performing optical imaging of whole-body frozen sections. The intensity of the fluorescence of whole-body sections was measured with the IVIS® Imaging System 50 (Xenogen, Alameda, Calif.).
For example, mice (n=3) were i.v. injected with 500 μg FDGlcU or fluorescein 30 min before the mice were dipped into isopentane at liquid nitrogen temperatures and embedded on a cryostat holder (7×5 cm) in 4% carboxylmethylcellulose. The fluorescence signals of 30 μm whole-body sections were measured on a IVIS® Imaging System 50 (Xenogen, Alameda, Calif.) and the regions of interest were analyzed with Living Image® software (Xenogen).
FIG. 9 is a graph showing a comparison of the results of the example of FIG. 8 in different organ regions of interest according to one embodiment of the invention. After i.v. injection of FDGlcU or fluorescein, mice were analyzed with Living Image® software. […] The fluorescent intensity in CT26/mβG-eB7 tumors was about 240 times greater than in the CT26 tumors (FIG. 9). Fluorescent signals were also observed in the intestinal tract.

[2] = biological target: Recombinant E. coli β-glucuronidase (Escherichia coli, UniProt P05804); assay: Trapping of FITC-trap-glu on coated β-glucuronidase detected by anti-FITC antibody ELISA; format: biochemical; details: β-glucuronidase and BSA about 2 μg/well, serial dilutions, about 60 mins
Chain of Recombinant E. coli β-glucuronidase (P05804 whole entry): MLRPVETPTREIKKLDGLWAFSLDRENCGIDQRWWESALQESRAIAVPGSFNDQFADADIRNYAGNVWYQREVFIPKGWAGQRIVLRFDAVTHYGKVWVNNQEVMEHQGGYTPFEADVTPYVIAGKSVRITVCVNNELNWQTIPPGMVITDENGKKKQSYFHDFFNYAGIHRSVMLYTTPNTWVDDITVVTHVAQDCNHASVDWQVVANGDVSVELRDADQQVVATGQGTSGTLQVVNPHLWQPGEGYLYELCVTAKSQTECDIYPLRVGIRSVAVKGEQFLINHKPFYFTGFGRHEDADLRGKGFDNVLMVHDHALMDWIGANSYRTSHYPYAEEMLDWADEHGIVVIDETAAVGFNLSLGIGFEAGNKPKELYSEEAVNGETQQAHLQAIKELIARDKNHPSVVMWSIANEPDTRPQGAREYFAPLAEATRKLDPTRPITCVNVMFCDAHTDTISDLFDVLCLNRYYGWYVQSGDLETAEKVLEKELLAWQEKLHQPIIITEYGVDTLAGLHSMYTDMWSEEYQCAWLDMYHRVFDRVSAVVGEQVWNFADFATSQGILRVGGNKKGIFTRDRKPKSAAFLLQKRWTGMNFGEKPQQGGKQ
Procedure: Recombinant E. coli β-glucuronidase (about 2 μg/well) and bovine serum albumin (about 2 μg/well) were coated in 96 well microtiter plates and blocked with about 2% of skin milk. Serial dilutions of the FITC-trap-glu probe in phosphate-buffered saline were added to the wells of the microtiter plates at room temperature for about 60 mins. The plates were washed 3 times with phosphate-buffered saline. The plates were stained with about 1 μg/mL of an anti-FITC antibody followed by about 1 μg/mL of horse-radish peroxidase-conjugated anti-mouse IgG. The plates were washed and bound peroxidase activity was measured by adding about 100 μL/well of ABTS solution (about 0.4 mg/mL of 2,2′ azino-di(3-ethylbenzthiazoline-6-sulfonic acid), about 0.003% of H2O2, about 100 mM of phosphate-citrate, pH 4.0) for about 30 min at room temperature.

mβG-eB7 [3] = biological target: T1, mβG-eB7; assay: FDGlcU staining of HCC36 cells infected with Ad5/mβG-eB7, flow cytometer; format: cell-based
Excerpt: HCC36 cells (open curve) and HCC36 cells infected with Ad5/mβG-eB7 (solid curve) were stained for the presence of the […] epitope in mβG-eB7 (left panel) or directly stained with FDGlcU (right panel) and then analyzed on a flow cytometer.
As shown by staining of membrane β-glucuronidase with anti-myc antibody in the left panel of FIG. 10, HCC36 cells were successfully infected with Ad5/mβG-eB7.

mβG-eB7 [4] = biological target: T1, mβG-eB7; assay: FDGlcU hydrolysis on live CT26 and CT26/mβG-eB7 cells, confocal microscopy; format: cell-based; details: 40 μM FDGlcU, pH 6.5, 37° C., 40 minutes
Procedure: For example, functional expression of membrane bound β-glucuronidase on a host cell can be measured by incubating the host cells (with and without the recombinant reporter gene systems, such as CT26 or CT26/mβG-eB7 cells) with 40 μM FDGlcU (Invitrogen, Calsbad, Calif.) in phosphate-buffered saline containing 0.1% BSA, pH 6.5 at 37° C. for 40 minutes and then staining the cells with anti-myc antibody (5 μg/ml, clone Myc 1-9EIO.2, American Type Culture Collection, Manassas, Va.) at about 4° C. for about 1 hour. The cells can be washed with cold phosphate-buffered saline and incubated with rhodamine-conjugated rabbit anti-mouse IgG antibody (5 μg/ml) at about 4° C. for about 1 hour. The cells are then washed with cold phosphate-buffered saline, mounted with fluorescence mounting medium (anti fade; DakoCytomation, Carpinteria, Calif.), and viewed under a digital fluorescence confocal microscope.

mβG-eB7 [5] = biological target: T1, mβG-eB7; assay: In vivo whole-body optical imaging of FDGlcU activation in mice bearing CT26 and CT26/mβG-eB7 tumors; details: Balb/c mice, 500 μg i.v.
Procedure: To investigate whether expression sites of membrane bound β-glucuronidase reporter system could be non-invasively detected (in vivo imaging), Balb/c mice bearing established CT26 and CT26/mβG-eB7 colon tumors in their left and right chest regions, respectively, were intravenously injected with about 500 μg of non-fluorescent FDGlcU. Whole-body images of the mice were acquired by performing 3 minute scans.
As an example, Balb/c mice (n=3) bearing established CT26 and CT26/mβG tumors (200-300 mm^3) in their left and right chest regions, respectively, were i.v. injected with 500 μg FDGlcU. Whole-body images of pentobarbital-anesthetized mice were obtained by performing 3 minutes scans over 90 minutes on a Kodak IS2000MM optical imaging system. The fluorescence intensities were analyzed with KODAK 1D Image Analysis Software.
The distribution of activated FDGlcU in CT26 (open circle) and CT26/mβG-eB7 (black dot) tumors (n=4) was determined by measuring fluorescence intensities in 3 minute scans performed over 90 minutes.

mβG-eB7 [6] = biological target: T1, mβG-eB7; assay: In vivo imaging of FDGlcU in nude mice with HCC36 tumors injected with Ad5/mβG-eB7; details: 10^9 pfu intratumoral, FDGlcU i.v. two days later
Procedure: To image Ad5/mβG-eB7, nude mice (n=3) bearing established HCC36 tumors (200-300 mm^3) in their left and right chest's regions were injected in the right HCC36 tumor with 10^9 pfu of Ad5/mβG-eB7 in 50 μl of phosphate-buffered saline (PBS). Two days later, the mice were i.v. injected with 500 μg of FDGlcU. Whole-body images were obtained in 3 min scans over 2 hour.
After the tumors grew, 10^9 pfu of Ad5/mβG-eB7 was directly injected into the HCC36 tumor on the right side of the mouse. Two days later, the mouse was i.v. injected with FDGlcU and whole-body optical imaging was performed.
Tumor cells were collected 30 minutes after FDGlcU injection were stained with X-GlcA and nuclear fast red and then viewed under phase contrast and fluorescence microscopes.

hβG-eB7 = biological target: T2, hβG-eB7 (UniProt P08236+Q00609, L649P); assay: In vivo imaging of FDGlcU in nude mice bearing EJ and EJ/hβG-eB7 tumors; design: species or system human; details: 500 μg i.v.
T2 construct: expressed in transfected cells; host or cells: EJ human bladder carcinoma cells, retroviral transduction with pLNCX-hβG-eB7; tumours in nude mice
T2 sequence (P08236+Q00609 with tags, fused parts or gaps P08236:L649P): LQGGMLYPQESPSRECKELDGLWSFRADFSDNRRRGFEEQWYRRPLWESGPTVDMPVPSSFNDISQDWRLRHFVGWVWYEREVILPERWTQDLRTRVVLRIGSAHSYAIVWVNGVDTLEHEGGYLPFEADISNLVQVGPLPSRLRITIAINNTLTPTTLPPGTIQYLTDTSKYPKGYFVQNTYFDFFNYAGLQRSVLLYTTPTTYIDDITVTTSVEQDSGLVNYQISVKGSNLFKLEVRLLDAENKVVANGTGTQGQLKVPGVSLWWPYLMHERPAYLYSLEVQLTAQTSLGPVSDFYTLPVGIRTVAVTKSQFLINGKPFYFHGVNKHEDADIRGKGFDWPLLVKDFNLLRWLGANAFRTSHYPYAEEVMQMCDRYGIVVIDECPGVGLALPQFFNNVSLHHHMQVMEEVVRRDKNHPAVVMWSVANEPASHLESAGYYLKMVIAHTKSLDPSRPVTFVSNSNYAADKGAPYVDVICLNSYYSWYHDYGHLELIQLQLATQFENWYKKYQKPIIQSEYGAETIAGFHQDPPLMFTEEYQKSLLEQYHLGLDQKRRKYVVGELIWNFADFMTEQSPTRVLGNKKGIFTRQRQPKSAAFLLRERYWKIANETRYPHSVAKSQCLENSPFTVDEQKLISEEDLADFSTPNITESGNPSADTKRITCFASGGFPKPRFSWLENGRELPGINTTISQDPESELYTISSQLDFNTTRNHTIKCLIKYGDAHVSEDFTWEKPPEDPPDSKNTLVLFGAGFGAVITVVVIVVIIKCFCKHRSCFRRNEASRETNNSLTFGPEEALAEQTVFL
Procedure: Retroviral vector pLNCX-hβG-eB7 was constructed and infected to EJ human bladder carcinoma cells (EJ/hβG-eB7) to express functionally active human β-glucuronidase on the membrane. hβG-eB7 was imaged in nude mice (n=3) bearing established EJ and EJ/hβG-eB7 tumors (200-300 mm^3) in their left and right chest regions, respectively, by i.v. injecting 500 μg FDGlcU and performing imaging and histological analysis of fluorescent intensity and βG activity as described above.
FDGlcU was i.v. injected into mice bearing EJ (left) and EJ/hβG-eB7 (right) tumors and whole-body images were acquired at the indicated times (3 mins, 30 mins, 60 mins). […] Live EJ cells (open curve) and EJ/hβG-eB7 cells (solid curve) were immunofluorescence stained for the myc epitope (left panel) or incubated with FDGlcU (right panel), respectively, and analyzed on a flow cytometer.

mβG-eB7 [7] = biological target: T1, mβG-eB7; assay: ^124I-trap-glu conversion by CT26/mβG-eB7 or CT26 cells, bound radioactivity in gamma-counter; format: cell-based; details: graded concentrations, room temperature, about 40 mins
Procedure: Graded concentrations of the ^124I-trap-glu probe/substrate were incubated with CT26/mβG-eB7 (▪) or CT26 cells (□) in phosphate-buffer saline at room temperature for about 40 mins. The plates containing the transfected cells were washed and bound radioactivity was measured in a gamma-counter.

mβG-eB7 [8] = biological target: T1, mβG-eB7; assay: ^124I-ph-trap-glu conversion by CT26/mβG-eB7 or CT26 cells, cell radioactivity in gamma-counter; format: cell-based; details: graded concentrations, room temperature, about 40 mins
Procedure: Graded concentrations of the ^124I-trap-glu probe was added to 96-well microtiter plates coated with CT26/mβG-eB7 (▪) or CT26 cells (□) in phosphate-buffered saline at room temperature for about 40 mins. The plates were then washed to remove non-precipitated probes and the cells were collected by treatment with trypsin. The radioactivity of cells was then measured in a gamma-counter.

## O=C1OC2(c3ccc(O)cc3Oc3cc(O)ccc32)c2ccccc21 [fluorescein]
mβG-eB7 [1]; tumor-bearing mice
  in vivo biodistribution: largely accumulated in the intestinal tract and kidneys

## N-fluorescein-isothiocyanato (3-difluoromethylphenyl)-β-D-glucopyronuronate [FITC-trap-glu]
[2]
  trapping by β-glucuronidase detected by anti-FITC antibody: specific trapping

## O=C1OC2(c3ccc(O[C@@H]4O[C@H](C(=O)O)[C@@H](O)[C@H](O)[C@H]4O)cc3Oc3cc(O[C@@H]4O[C@H](C(=O)O)[C@@H](O)[C@H](O)[C@H]4O)ccc32)c2ccccc21 [FDGlcU, fluorescein di-β-D-glucuronide]
mβG-eB7 [3]
  activation of FDGlcU at Ad5/mβG-eB7 infected HCC36 cells: activated to fluorescent product at the infected cells
mβG-eB7 [4]
  conversion of FDGlcU to fluorescein on cells: only CT26/mβG-e-B7 cells
mβG-eB7 [1]; whole-body sections
  fluorescent intensity in CT26/mβG-eB7 tumors relative to CT26 tumors: about 240 times
mβG-eB7 [5]; 3 minute scans over 90 minutes
  time of highest fluorescence after FDGlcU injection: 30 min
mβG-eB7 [5]; whole-body images at 3, 30, 60 mins
  conversion of FDGlcU to fluorescein in CT26/mβG tumors vs control CT26 tumors: selectively converted to fluorescein
mβG-eB7 [6]
  fluorescence of Ad5/mβG-eB7 injected HCC36 tumor vs non-infected HCC36 tumors: obvious fluorescence
hβG-eB7
  conversion to fluorescent reporter in EJ/hβG-eB7 vs control EJ tumors: preferentially converted to a fluorescent reporter in EJ/hβG-eB7 tumors but not in control tumors

## ^124I-difluoromethylphenol glucuronide [^124I-trap-glu]
mβG-eB7 [7]
  conversion of probe to ^124I-trap product in CT26/mβG-eB7 vs CT26 cells: specifically converts

## ^124I-phenolphthalin glucuronide [^124I-ph-trap-glu]
mβG-eB7 [8]
  conversion of probe to ^124I-trap reporter product in CT26/mβG-eB7 vs CT26 cells: specifically converts
